In patent US20210047297A1, “4-(3-AMINO-6-FLUORO-1H-INDAZOL-5-YL)-1,2,6-TRIMETHYL-1,4-DIHYDROPYRIDINE-3,5-DIC ARBONITRILE COMPOUNDS FOR TREATING HYPERPROLIFERATIVE DISORDERS” (Bayer Pharma Aktiengesellschaft, priority 2018, published 2021) one finds IC50 data, which are given here for 14 compounds.

The target of the test is T1, GST-AMPKα2/ß1/γ1 complex (full-length human AMPKα2) (Homo sapiens, UniProt P54619+P54646+Q9Y478).
T1 construct: purchased Carna Biosciences 02-114; host or cells: baculovirus expression system
T1 sequence (P54646 whole entry): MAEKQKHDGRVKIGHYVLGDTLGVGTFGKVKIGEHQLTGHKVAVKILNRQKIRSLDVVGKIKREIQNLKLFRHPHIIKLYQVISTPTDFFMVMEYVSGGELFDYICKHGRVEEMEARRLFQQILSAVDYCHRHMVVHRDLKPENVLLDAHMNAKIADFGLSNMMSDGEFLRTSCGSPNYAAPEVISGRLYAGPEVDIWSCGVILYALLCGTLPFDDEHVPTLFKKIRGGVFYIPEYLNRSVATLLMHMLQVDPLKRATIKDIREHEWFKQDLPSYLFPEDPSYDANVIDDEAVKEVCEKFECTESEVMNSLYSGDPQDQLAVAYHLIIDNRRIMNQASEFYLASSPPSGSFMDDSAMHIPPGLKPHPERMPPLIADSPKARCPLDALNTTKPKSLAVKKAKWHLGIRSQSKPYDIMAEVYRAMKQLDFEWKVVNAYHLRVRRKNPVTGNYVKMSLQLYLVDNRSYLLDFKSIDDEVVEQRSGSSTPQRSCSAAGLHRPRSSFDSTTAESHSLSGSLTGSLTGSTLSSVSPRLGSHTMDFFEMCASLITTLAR
T1 sequence (Q9Y478 whole entry partner): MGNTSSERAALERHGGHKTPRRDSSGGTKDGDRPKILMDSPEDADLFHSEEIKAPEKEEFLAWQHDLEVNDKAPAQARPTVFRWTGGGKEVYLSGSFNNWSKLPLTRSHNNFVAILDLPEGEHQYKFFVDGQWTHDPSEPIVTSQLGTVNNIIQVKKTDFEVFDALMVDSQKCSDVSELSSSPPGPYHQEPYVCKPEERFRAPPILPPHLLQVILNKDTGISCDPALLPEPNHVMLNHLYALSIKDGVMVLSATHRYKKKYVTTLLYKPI
T1 sequence (P54619 whole entry partner): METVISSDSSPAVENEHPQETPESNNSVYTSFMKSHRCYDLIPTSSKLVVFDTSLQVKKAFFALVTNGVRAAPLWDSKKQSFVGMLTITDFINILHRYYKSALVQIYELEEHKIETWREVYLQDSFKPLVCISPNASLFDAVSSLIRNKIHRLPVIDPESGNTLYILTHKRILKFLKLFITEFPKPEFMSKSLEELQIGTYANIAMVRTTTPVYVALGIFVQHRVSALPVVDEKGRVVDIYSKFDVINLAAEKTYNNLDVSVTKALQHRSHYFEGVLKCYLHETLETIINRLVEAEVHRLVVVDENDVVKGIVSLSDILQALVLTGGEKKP
In words: AMPK high ATP assay (TR-FRET-based AMPK activity inhibition assay). It is filed as biochemical. Particulars: ATP concentration of 1 mM; median; read-out: AMPK high ATP assay IC50 [mol/l] (median). As for the experimental part: AMPK inhibitory activity of compounds of the present invention at an ATP concentration of 1 mM was quantified employing the TR-FRET-based AMPK activity inhibition assay as described in the following paragraphs.
Recombinant fusion protein of N-terminal Glutathion-S-Transferase (GST) and full-length human AMPKα2 [1-552(end) amino acids of accession number NP_006243.2] co-expressed with GST-PRKAB1 [1-270(end) amino acids of accession number NP_006244.2] and PRKAG1 [1-331(end) amino acids of accession number NP_002724.1] using a baculovirus expression system, purified as GST-AMPKα2/ß1/γ1 complex by using glutathione sepharose chromatography, activated with His-tagged CaMKK1 and subsequently purified by using glutathione sepharose chromatography, was purchased from Carna Biosciences (product number 02-114) and used as kinase. As substrate for the kinase reaction biotinylated peptide biotin-Ahx-HMRSAMSFAEPG (C-terminus in amide form) was used which can be purchased e.g. form the company Biosyntan (Berlin-Buch, Germany). For the assay 50 nl of a 100 fold concentrated solution of the test compound in DMSO was pipetted into either a black low volume 384 well microtiter plate or a black 1536 well microtiter plate (both Greiner Bio-One, Frickenhausen, Germany), 2 μl of a solution of GST-AMPKα2/ß1/γ1 in aqueous assay buffer [50 mM Hepes pH 7.5, 10 mM MgCl2, 5 mM β-glycerophosphate, 2.5 mM dithiothreitol (DTT), 0.5 mM EGTA, 0.01% (w/v) bovine γ-globulin (Sigma-Aldrich, #G5009), 0.01% (v/v) Triton X-100 (Sigma-Aldrich, #T9284)] were added and the mixture was incubated for 15 min at 22° C. to allow pre-binding of the test compounds to the enzyme before the start of the kinase reaction. Then the kinase reaction was started by the addition of 3 μl of a solution of adenosine-tri-phosphate (ATP, 1.67 mM=>final conc. in the 5 μl assay volume is 1 mM), adenosine-mono-phosphate (AMP, 3.33 μM=>final conc. in the 5 μl assay volume is 2 μM), and substrate (0.83 μM=>final conc. in the 5 μl assay volume is 0.5 μM) in assay buffer and the resulting mixture was incubated for a reaction time of 30 min at 22° C. The concentration of GST-AMPK α2/ß1/γ1 was adjusted depending of the activity of the enzyme lot and was chosen appropriate to have the assay in the linear range, a typical concentration was 0.08 nM. The reaction was stopped by the addition of 3 μl of a solution of TR-FRET detection reagents (0.2 μM streptavidine-XL665 [Cisbio Bioassays, Codolet, France] and 3.33 nM anti-phosho-Serine antibody [Merck Millipore, “STK antibody”, cat. #35-002] and 3.33 nM anti mouse IgG-Tb cryptate, a Terbium-cryptate labelled anti-mouse IgG antibody [Cisbio Bioassays, Codolet, France] in an aqueous EDTA-solution (166.7 mM EDTA, 0.06 (w/v) bovine serum albumin in 50 mM HEPES pH 7.5).
The resulting mixture was incubated 1 h at 22° C. to allow the formation of complex between the phosphorylated biotinylated peptide and the detection reagents. Subsequently the amount of phosphorylated substrate was evaluated by measurement of the resonance energy transfer from the Tb-cryptate to the streptavidine-XL665. Therefore, the fluorescence emissions at 620 nm and 665 nm after excitation at 350 nm was measured in a TR-FRET reader, e.g. a Pherastar FS (BMG Labtechnologies, Offenburg, Germany) or a Viewlux (Perkin-Elmer). The ratio of the emissions at 665 nm and at […] was taken as the measure for the amount of phosphorylated substrate. The data were normalised (enzyme reaction without inhibitor=0 inhibition, all other assay components but no enzyme=100% inhibition).
Background: TR-FRET usually uses a lanthanide donor and a delayed reading to cut background.
As for `CC1=C(C#N)C(c2cc3c(NC(=O)c4ccc(OCCN5CCCC5)cc4Cl)n[nH]c3c(C)c2F)C(C#N)=C(C)N1C` [Example 20, 2-chloro-N-[5-(3,5-dicyano-1,2,6-trimethyl-1,4-dihydropyridin-4-yl)-6-fluoro-7-methyl-1H-indazol-3-yl]-4-[2-(pyrrolidin-1-yl)ethoxy]benzamide], the IC50 is 0.66 nM. As to `COC(=O)C12C3C4C1C1C2C3C41C(=O)Nc1n[nH]c2c(C)c(F)c(C3C(C#N)=C(C)N(C)C(C)=C3C#N)cc12` (centres unmarked) [Example 22, methyl 4-{[5-(3,5-dicyano-1,2,6-trimethyl-1,4-dihydropyridin-4-yl)-6-fluoro-7-methyl-1H-indazol-3-yl]carbamoyl}cubane-1-carboxylate], the IC50 came to 65.6 nM. With `CC1=C(C#N)C(c2cc3c(NC(=O)C45C6C7C4C4C5C6C74C(=O)N4CCC4)n[nH]c3c(C)c2F)C(C#N)=C(C)N1C` (centres unmarked) [Example 23, 4-(azetidine-1-carbonyl)-N-[5-(3,5-dicyano-1,2,6-trimethyl-1,4-dihydropyridin-4-yl)-6-fluoro-7-methyl-1H-indazol-3-yl]cubane-1-carboxamide], the IC50 was determined as 105 nM. In the case of `CC1=C(C#N)C(c2cc3c(NC(=O)C45C6C7C4C4C5C6C74C(=O)N4CCN(C)CC4)n[nH]c3c(C)c2F)C(C#N)=C(C)N1C` (centres unmarked) [Example 24, N-[5-(3,5-dicyano-1,2,6-trimethyl-1,4-dihydropyridin-4-yl)-6-fluoro-7-methyl-1H-indazol-3-yl]-4-(4-methylpiperazine-1-carbonyl)cubane-1-carboxamide], the IC50 was found to be 59.7 nM.

As to `C=Cc1c(F)c(C2C(C#N)=C(C)N(C)C(C)=C2C#N)cc2c(NC(=O)c3cc(C)nn3CC)n[nH]c12` [Example 25, N-[5-(3,5-dicyano-1,2,6-trimethyl-1,4-dihydropyridin-4-yl)-7-ethenyl-6-fluoro-1H-indazol-3-yl]-1-ethyl-3-methyl-1H-pyrazole-5-carboxamide], the IC50 was 152 nM. As for `CCc1c(F)c(C2C(C#N)=C(C)N(C)C(C)=C2C#N)cc2c(NC(=O)c3c(F)cccc3F)n[nH]c12` [Example 26, N-[5-(3,5-dicyano-1,2,6-trimethyl-1,4-dihydropyridin-4-yl)-7-ethyl-6-fluoro-1H-indazol-3-yl]-2,6-difluorobenzamide], the IC50 turned out to be 38.1 nM. The figure for `CCc1ccccc1C(=O)Nc1n[nH]c2c(CC)c(F)c(C3C(C#N)=C(C)N(C)C(C)=C3C#N)cc12` [Example 27, N-[5-(3,5-dicyano-1,2,6-trimethyl-1,4-dihydropyridin-4-yl)-7-ethyl-6-fluoro-1H-indazol-3-yl]-2-ethylbenzamide] is 59.5 nM.

In the case of `CCc1c(F)c(C2C(C#N)=C(C)N(C)C(C)=C2C#N)cc2c(NC(=O)c3ccnn3C(C)C)n[nH]c12` [Example 28, N-[5-(3,5-dicyano-1,2,6-trimethyl-1,4-dihydropyridin-4-yl)-7-ethyl-6-fluoro-1H-indazol-3-yl]-1-(propan-2-yl)-1H-pyrazole-5-carboxamide], the IC50 came out at 138 nM.

For `CCc1c(F)c(C2C(C#N)=C(C)N(C)C(C)=C2C#N)cc2c(NC(=O)c3c(Cl)cnn3C)n[nH]c12` [Example 29, 4-chloro-N-[5-(3,5-dicyano-1,2,6-trimethyl-1,4-dihydropyridin-4-yl)-7-ethyl-6-fluoro-1H-indazol-3-yl]-1-methyl-1H-pyrazole-5-carboxamide], the IC50 was found to be 122 nM. The figure for `CCc1c(F)c(C2C(C#N)=C(C)N(C)C(C)=C2C#N)cc2c(NC(=O)c3cc(C)nn3CC)n[nH]c12` [Example 30, N-[5-(3,5-dicyano-1,2,6-trimethyl-1,4-dihydropyridin-4-yl)-7-ethyl-6-fluoro-1H-indazol-3-yl]-1-ethyl-3-methyl-1H-pyrazole-5-carboxamide] is 68.6 nM; for `CCc1c(F)c(C2C(C#N)=C(C)N(C)C(C)=C2C#N)cc2c(NC(=O)c3ccccc3Cl)n[nH]c12` [Example 31, 2-chloro-N-[5-(3,5-dicyano-1,2,6-trimethyl-1,4-dihydropyridin-4-yl)-7-ethyl-6-fluoro-1H-indazol-3-yl]benzamide] it is 71.5 nM; for `CC1=C(C#N)C(c2cc3c(NC(=O)c4ccccc4Cl)n[nH]c3c(C(F)(F)F)c2F)C(C#N)=C(C)N1C` [Example 32, 2-chloro-N-[5-(3,5-dicyano-1,2,6-trimethyl-1,4-dihydropyridin-4-yl)-6-fluoro-7-(trifluoromethyl)-1H-indazol-3-yl]benzamide] it is 10.5 nM.

In the case of `CCn1nc(C)cc1C(=O)Nc1n[nH]c2c(C(F)(F)F)c(F)c(C3C(C#N)=C(C)N(C)C(C)=C3C#N)cc12` [Example 33, N-[5-(3,5-dicyano-1,2,6-trimethyl-1,4-dihydropyridin-4-yl)-6-fluoro-7-(trifluoromethyl)-1H-indazol-3-yl]-1-ethyl-3-methyl-1H-pyrazole-5-carboxamide], the IC50 worked out at 25 nM. The figure for `CC1=C(C#N)C(c2ccc3[nH]nc(NC(=O)c4ccccc4)c3c2)C(C#N)=C(C)N1` [Reference Example 1, N-[5-(3,5-dicyano-2,6-dimethyl-1,4-dihydropyridin-4-yl)-1H-indazol-3-yl]benzamide, reference compound] is 279 nM.
